Usually TGI stands for the concentration at which net growth stops. Read a low TGI as more potent growth arrest.

The record followed here is PubChem BioAssay (NCI).

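Five compound concentrations were applied to cells in 96-well plates for 48 hours; endpoints were derived by simple linear interpolation of the resulting dose-response curve. TGI denotes the concentration required for complete inhibition of growth.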

Test systems include SF-539 CNS; UACC-257 melanoma; MDA-MB-231 breast; HOP-62 NSCLC; NCI-H23 lung; UO-31 renal; SK-MEL-2 melanoma; OVCAR-5 ovarian; CCRF-CEM leukemia; U251 CNS; CAKI-1 renal; MCF7 breast; MOLT-4 leukemia; SF-268 CNS; SW-620 colon; SNB-19 CNS; A549 NSCLC; SK-MEL-28 melanoma; HOP-92 NSCLC.
Common to all, as to experiment: DTP human tumour cell line panel, 48 h

As to `CC1OC(OC2C(CO)OC(O[C@H]3CC[C@@]4(C)C(=CC[C@H]5[C@@H]6C[C@@H]7O[C@](O)(CC[C@H](CO)COC8OC(CO)C(O)C(O)C8O)[C@@H](C)[C@@H]7[C@@]6(C)CC[C@@H]54)C3)C(OC3OC(C)C(O)C(O)C3O)C2O)C(O)C(O)C1O` (some centres undefined), the total growth inhibition concentration (TGI) in the experiment on SF-539 CNS, in the experiment with UACC-257 melanoma, in the experiment on MDA-MB-231 breast, in the experiment on HOP-62 NSCLC, with NCI-H23 lung and in the experiment with UO-31 renal was greater than 100 µM throughout. For the same molecule, the TGI in the experiment with SK-MEL-2 melanoma, in the experiment on OVCAR-5 ovarian, in the experiment on CCRF-CEM leukemia, in the experiment with U251 CNS, with CAKI-1 renal and with MCF7 breast was greater than 100 µM throughout. Also, the TGI in the experiment on MOLT-4 leukemia, with SF-268 CNS, in the experiment on SW-620 colon, with SNB-19 CNS, in the experiment with A549 NSCLC and with SK-MEL-28 melanoma was greater than 100 µM each time. This molecule returned a TGI with HOP-92 NSCLC greater than 100 µM.
On to `CCC12CC(c3ccccc3)C(C(=O)N1)C(=O)N2` (centres undefined), for which the TGI in the experiment on SF-539 CNS, in the experiment on UACC-257 melanoma, in the experiment with MDA-MB-231 breast, with HOP-62 NSCLC, with NCI-H23 lung and in the experiment on UO-31 renal was greater than 100 µM throughout. Also, the concentration for total growth inhibition (TGI) in the experiment on SK-MEL-2 melanoma, with OVCAR-5 ovarian, with CCRF-CEM leukemia, with U251 CNS, in the experiment on CAKI-1 renal and with MCF7 breast was greater than 100 µM in each case. Further, the TGI in the experiment on MOLT-4 leukemia, in the experiment with SF-268 CNS, in the experiment with SW-620 colon, in the experiment with SNB-19 CNS, in the experiment with A549 NSCLC and with SK-MEL-28 melanoma was greater than 100 µM in each case. Also, the TGI with HOP-92 NSCLC was greater than 100 µM.
`O=C(Nc1sccc1S(=O)(=O)c1ccc(Cl)cc1)c1ccccc1`: the TGI in the experiment with SF-539 CNS, in the experiment on UACC-257 melanoma, in the experiment on MDA-MB-231 breast, in the experiment on HOP-62 NSCLC, in the experiment on NCI-H23 lung and in the experiment with UO-31 renal was greater than 100 µM each time. Besides, the TGI with SK-MEL-2 melanoma, in the experiment on OVCAR-5 ovarian, in the experiment on CCRF-CEM leukemia, with U251 CNS, with CAKI-1 renal and in the experiment with MCF7 breast was greater than 100 µM each time. For the same molecule, the concentration for total growth inhibition (TGI) in the experiment on MOLT-4 leukemia, in the experiment on SF-268 CNS, with SW-620 colon, with SNB-19 CNS, in the experiment on A549 NSCLC and in the experiment on SK-MEL-28 melanoma was greater than 100 µM each time. For the same molecule, the TGI in the experiment with HOP-92 NSCLC was greater than 100 µM.
For `CC1=NN(C(=O)CC(=O)Nc2cccc(C)c2)C(=O)C1N=Nc1ccc(S(=O)(=O)c2ccc(N=NC3C(=O)N(C(=O)CC(=O)Nc4cccc(C)c4)N=C3C)cc2)cc1` (centres undefined), the TGI with SF-539 CNS, in the experiment with UACC-257 melanoma, in the experiment on MDA-MB-231 breast, with HOP-62 NSCLC, with NCI-H23 lung and in the experiment with UO-31 renal was greater than 100 µM throughout. Also, the TGI with SK-MEL-2 melanoma, with OVCAR-5 ovarian, in the experiment on CCRF-CEM leukemia, in the experiment with U251 CNS, in the experiment on CAKI-1 renal and in the experiment with MCF7 breast was greater than 100 µM throughout. Besides, the TGI in the experiment on MOLT-4 leukemia, in the experiment on SF-268 CNS, with SW-620 colon, in the experiment with SNB-19 CNS, with A549 NSCLC and in the experiment with SK-MEL-28 melanoma was greater than 100 µM each time. For the same molecule, the TGI in the experiment with HOP-92 NSCLC was greater than 100 µM.
`COc1ccc2c(c1)CCN1CCCc3ccc(OC)cc3C21` (centres undefined): the TGI with SF-539 CNS, in the experiment on UACC-257 melanoma, in the experiment with MDA-MB-231 breast, in the experiment with HOP-62 NSCLC, with NCI-H23 lung and in the experiment with UO-31 renal was greater than 100 µM each time. Moreover, the TGI with SK-MEL-2 melanoma, in the experiment on OVCAR-5 ovarian, in the experiment on CCRF-CEM leukemia, in the experiment on U251 CNS, in the experiment on CAKI-1 renal and with MCF7 breast was greater than 100 µM each time. The TGI in the experiment on MOLT-4 leukemia, in the experiment on SF-268 CNS, with SW-620 colon, in the experiment with SNB-19 CNS, with A549 NSCLC and in the experiment with SK-MEL-28 melanoma was greater than 100 µM each time. For the same molecule, the TGI with HOP-92 NSCLC is greater than 100 µM.
Consider `CCOC(=O)c1[nH]cc(C)c1-c1c[nH]c2ccccc12`, for which the TGI was greater than 100 µM in the experiment on SF-539 CNS; greater than 100 µM with UACC-257 melanoma; greater than 58.9 µM in the experiment with MDA-MB-231 breast; greater than 100 µM with HOP-62 NSCLC; greater than 100 µM in the experiment with NCI-H23 lung; 48.1 µM in the experiment with UO-31 renal. Also, the TGI in the experiment with SK-MEL-2 melanoma is greater than 93 µM; in the experiment with OVCAR-5 ovarian, greater than 100 µM; in the experiment with CCRF-CEM leukemia, greater than 78.1 µM; with U251 CNS it was greater than 100 µM; in the experiment with CAKI-1 renal it was greater than 100 µM; in the experiment with MCF7 breast, greater than 60.8 µM. The TGI is 27.9 µM in the experiment with MOLT-4 leukemia; greater than 100 µM with SF-268 CNS; greater than 100 µM with SW-620 colon; greater than 100 µM in the experiment on SNB-19 CNS; greater than 100 µM in the experiment on A549 NSCLC; greater than 100 µM in the experiment on SK-MEL-28 melanoma. This molecule had a TGI in the experiment on HOP-92 NSCLC greater than 74.4 µM.
For `Cn1c(=O)cc(N=Nc2ccc(Cl)c(Cl)c2)[nH]c1=O`, the TGI in the experiment on SF-539 CNS is greater than 100 µM; with UACC-257 melanoma, 65.9 µM; in the experiment on MDA-MB-231 breast, 45.3 µM; in the experiment on HOP-62 NSCLC, greater than 100 µM; in the experiment on NCI-H23 lung, 86.5 µM; with UO-31 renal it was greater than 100 µM. Further, the TGI is 45.2 µM in the experiment on SK-MEL-2 melanoma; greater than 100 µM in the experiment with OVCAR-5 ovarian; 68.8 µM with CCRF-CEM leukemia; 56.3 µM with U251 CNS; 28.5 µM in the experiment with CAKI-1 renal; 59.8 µM in the experiment on MCF7 breast. The concentration for total growth inhibition (TGI) in the experiment on MOLT-4 leukemia is 61 µM; in the experiment on SF-268 CNS it was 51.1 µM; in the experiment with SW-620 colon it was 58.9 µM; in the experiment with SNB-19 CNS, greater than 100 µM; in the experiment with A549 NSCLC, greater than 100 µM; in the experiment with SK-MEL-28 melanoma, 57.5 µM. Moreover, the total growth inhibition concentration (TGI) with HOP-92 NSCLC turned out to be 80.4 µM.
For the molecule `COc1ccc2oc(=O)c(-c3nc4ccccc4o3)cc2c1`, the TGI with SF-539 CNS, in the experiment with UACC-257 melanoma, with MDA-MB-231 breast, in the experiment with HOP-62 NSCLC, in the experiment with NCI-H23 lung and in the experiment with UO-31 renal was greater than 100 µM throughout. The TGI with SK-MEL-2 melanoma, with OVCAR-5 ovarian, with CCRF-CEM leukemia, in the experiment on U251 CNS, in the experiment with CAKI-1 renal and with MCF7 breast was greater than 100 µM in each case. Also, the TGI in the experiment on MOLT-4 leukemia, in the experiment with SF-268 CNS, in the experiment with SW-620 colon, with SNB-19 CNS, with A549 NSCLC and with SK-MEL-28 melanoma was greater than 100 µM each time. The molecule also gave a TGI in the experiment with HOP-92 NSCLC greater than 100 µM.
With `CCCC(=O)NC(C(=O)OCC)(N1CCOCC1)C(F)(F)F` (centres undefined), the TGI in the experiment with SF-539 CNS, in the experiment on UACC-257 melanoma, in the experiment with MDA-MB-231 breast, in the experiment with HOP-62 NSCLC, with NCI-H23 lung and in the experiment with UO-31 renal was greater than 100 µM throughout. The TGI in the experiment with SK-MEL-2 melanoma, in the experiment on OVCAR-5 ovarian, in the experiment on CCRF-CEM leukemia, in the experiment on U251 CNS, in the experiment with CAKI-1 renal and in the experiment on MCF7 breast was greater than 100 µM each time. For the same molecule, the TGI in the experiment with MOLT-4 leukemia, with SF-268 CNS, in the experiment on SW-620 colon, in the experiment on SNB-19 CNS, in the experiment on A549 NSCLC and in the experiment with SK-MEL-28 melanoma was greater than 100 µM in each case. Moreover, the TGI with HOP-92 NSCLC is greater than 100 µM.
Consider `O=[N+]([O-])c1ccc(N/N=C(\c2ccccc2)c2ccccn2)nc1`, for which the TGI worked out at 15.3 µM with SF-539 CNS; 29.8 µM with UACC-257 melanoma; 61.7 µM in the experiment with MDA-MB-231 breast; 31.2 µM in the experiment on HOP-62 NSCLC; 14.9 µM in the experiment with NCI-H23 lung; 4.69 µM with UO-31 renal. In addition, the TGI in the experiment with SK-MEL-2 melanoma was greater than 94.9 µM; with OVCAR-5 ovarian it was 85.1 µM; with CCRF-CEM leukemia, greater than 91.5 µM; with U251 CNS, greater than 81.8 µM; in the experiment on CAKI-1 renal, 29.1 µM; in the experiment on MCF7 breast it was 8.45 µM. Besides, the TGI with MOLT-4 leukemia is greater than 67.2 µM; in the experiment on SF-268 CNS, 35.5 µM; with SW-620 colon it was greater than 77.1 µM; in the experiment with SNB-19 CNS, greater than 42.5 µM; in the experiment on A549 NSCLC, 24.2 µM; in the experiment on SK-MEL-28 melanoma, greater than 100 µM. The same molecule registered a TGI in the experiment with HOP-92 NSCLC of 43.8 µM.
Regarding `COc1cc([C@H]2CC(=O)C[C@@H](c3cc(OC)c(OC)c(OC)c3)C23C(=O)c2ccccc2C3=O)cc(OC)c1OC`, the total growth inhibition concentration (TGI) in the experiment with SF-539 CNS, in the experiment with UACC-257 melanoma, in the experiment with MDA-MB-231 breast, with HOP-62 NSCLC, in the experiment with NCI-H23 lung and in the experiment with UO-31 renal was greater than 100 µM in each case. Also, the TGI in the experiment with SK-MEL-2 melanoma, with OVCAR-5 ovarian, in the experiment with CCRF-CEM leukemia, in the experiment on U251 CNS, in the experiment with CAKI-1 renal and in the experiment with MCF7 breast was greater than 100 µM each time. The TGI in the experiment on MOLT-4 leukemia, in the experiment with SF-268 CNS, in the experiment with SW-620 colon, in the experiment with SNB-19 CNS, in the experiment with A549 NSCLC and with SK-MEL-28 melanoma was greater than 100 µM in each case. The molecule further had a TGI in the experiment with HOP-92 NSCLC greater than 100 µM.
